Measurements from patent US20190117634A1, “Treatment of Vulvodynia” (Gruenenthal GmbH, priority 2017, published 2019).

Test: in vitro permeation/penetration in porcine vaginal tissue (Franz diffusion cell)
Type: in vitro ADME
Experimental: The permeation/penetration of the formulation according to Example 1 in porcine vaginal tissue was assessed by in vitro experiments.
The in vitro experiments involved the use of a Franz diffusion cell designed to mimic the physiological and anatomical conditions of porcine vaginal tissue in situ. Porcine vaginal tissue skin was positioned between the two halves of a Franz diffusion cell with the vaginal epithelium facing the donor compartment allowing for drug product application. The other side of the porcine vaginal tissue skin faced a receiver fluid comprising 2% w/v Tween 80 in 20% v/v PEG 400 in water.
Prior to dosing of the formulation on the tissue, the integrity of the tissue was assessed as follows: • (i) Porcine vaginal tissue was mounted between the donor and receiver compartments and the cells were sealed together using Parafilm®. • (ii) The donor and receiver chambers were filled with PBS solution and a small magnetic follower was placed in the receiver compartment. • (iii) Cells were equilibrated in a water bath, ensuring a membrane temperature of 32° C. for 30 min. • (iv) The electrodes of the ISO-TECH LCR821 Meter were placed in the receiver chamber through the sampling arm and the donor chamber and the LCR was set at 100 Hz and set to ‘R’ for resistance. • (v) The resistance of the tissue in each Franz cell was measured using a ISO-TECH LCR821 Meter (SOP 3174). Cells with a resistance below the acceptable limits were discarded and remounted.
Following the tissue integrity testing, the PBS solutions were removed from each compartment and the receiver compartments of cells passing the resistance criteria were filled with receiver fluid. Each cell was then equilibrated to ensure a surface temperature of 32° C. (external skin surface temperature) for at least 30 min prior to dosing. An additional Franz cell was also mounted but not dosed (to act as a blank) to assess interference with sample quantification.
A positive displacement pipette was used to apply 6-8 mg of the formulation of table 1 to the tissue surface. Prior to application the weight of each test formulation was verified by weighing the amount dispensed by the positive displacement pipette into an empty vial (n=6).
Receiver fluid (200 μL) was removed at the following time points t=0, 1, 2, 4, 6 and 24 h and transferred to a HPLC vial for analysis. Fresh pre-warmed (37° C.) receiver fluid was used to replace the receiver fluid removed at each time point. Following the 24 h time point, remaining receiver fluid was removed from the Franz cells and the drug was recovered. […]

[1] = formulation of Example 1, after 24 h, Franz cell

CN(C)[C@]1(c2cccc(F)c2)CC[C@]2(CC1)c1[nH]c3ccccc3c1CCN2C(=O)/C=C/c1ccccc1 [pharmacologically active compound, cis-(E)-4-(3-fluorophenyl)-2′,3′,4′,9′-tetrahydro-N,N-dimethyl-2′-(1-oxo-3-phenyl-2-propenyl)-spiro[cyclohexane-1,1′[1H]-pyrido[3,4-b]indol]-4-amine]
Mean recovery of the pharmacologically active compound from the epithelium of porcine vaginal tissue (formulation of Example 1 (2.60 wt.-% compound), 6-8 mg applied, after 24 h, Franz cell, 32° C.): 9.72 μg | Mean recovery of the pharmacologically active compound from the epithelium of porcine vaginal tissue [1]: 810.21 μg/mL | Total concentration presented to vaginal epithelium [1]: 1596.04 µM | permeation into the epithelium of porcine vaginal tissue (in words) (formulation of Example 1, in vitro, 24 h): permeates into the epithelium of porcine vaginal tissue
